Laboratory results published in patent US10906904B2, “ADO-resistant cysteamine analogs and uses thereof” (HORIZON ORPHAN LLC, priority 2015, dated 2021).
Like-named read-outs stand apart in the source and are kept apart here.

Tests used:
Cystine reactivity assay = conditions: 30° C., percentage of 3 mM cysteamine
Description: Cystine reactivity was assessed by incubating 3 mM test compound with 100 nM BODIPY® FL L-Cystine (Life Tech.) at 30° C., pH 7.4 in phosphate buffer. […] Compound cystine reactivity was expressed as a percentage of that of 3 mM cysteamine.
Under resting conditions, the inherent fluorescence of BODIPY® FL L-cystine was very low due to the spatial proximity of the two BODIPY molecules causing quenching. Under chemical reaction (disruption of the S—S bond), the spatial distance was increased, the quenching lost, and measured fluorescence increased. Time (minutes) vs. fluorescence (relative fluorescence units—RFU) was plotted and linear regression analysis was performed to generate a slope value corresponding to the reaction rate in RFU/min and an R2 value.

human recombinant ADO = biological target: T1, human recombinant ADO (Homo sapiens, UniProt Q96SZ5); type: in vitro ADME; conditions: for ADO Metabolism Assay (%) Mean Value: human, 15 mM
T1 sequence (Q96SZ5 1-270): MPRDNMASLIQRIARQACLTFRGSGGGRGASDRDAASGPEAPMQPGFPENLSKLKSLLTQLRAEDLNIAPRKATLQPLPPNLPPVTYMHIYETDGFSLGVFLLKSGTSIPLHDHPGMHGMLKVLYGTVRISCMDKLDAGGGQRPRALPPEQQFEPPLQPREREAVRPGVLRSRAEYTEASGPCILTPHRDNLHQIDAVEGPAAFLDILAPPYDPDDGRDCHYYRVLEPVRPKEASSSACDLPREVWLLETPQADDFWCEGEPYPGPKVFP
Description: The rate of ADO metabolism was determined by incubating 15 mM test compound with 60 μg/ml human recombinant ADO and 20 nM MitoXpress® O2-sensitive fluorescent probe (Luxcel) at 37° C. in assay buffer/salt in a sealed assay chamber. The initial rate of fluorescence (excitation λ380 nm and emission λ650 nm) increase was used to measure ADO-dependent oxygen depletion activity. The ability of ADO to metabolize compounds and concomitantly consume oxygen was expressed relative to that of 15 mM cysteamine.

[1] = test system: cystinotic human fibroblasts; experiment: Cystine depletion assay; type: cell-based; conditions: for Emax: Homo sapiens, Fibroblast, 1 h; for Emax / Cystine Depletion (%): relative to cystine depletion by cysteamine (100%) at a similar concentration; for cystine depletion levels (in words): compared to cysteamine; for Cystine depletion: compound at 50 μM or 100 μM, Tables 1-3
Description: The ability of test compounds to deplete cystine from cystinotic human fibroblasts (Coriell) was determined by incubating compounds with cells for 60 min at 37° C., 95% (v/v) air/5% (v/v) CO2 in Minimal Essential Media Eagle. Treated cell samples were subsequently harvested, then homogenized to ensure plasma and lysosomal membrane disruption. Protein was removed by acid precipitation and cystine in the supernatant measured using LC-MS/MS and HILIC chromatography. Protein levels were determined and cystine levels reported as nM per mg/ml protein. Cystine levels after test compound treatment were expressed as a percentage of that of untreated control cells.
Compounds were assayed at a concentration of 50 μM or 100 μM according to the general methods described above.
Cystine depletion levels for the compounds are expressed in Table 4 as a percent relative to the cystine depletion achieved by cysteamine (c.f. cysteamine 100%) at a similar concentration.
Cystine depletion levels for each of the compounds in Table 5 are expressed as a percent relative to the cystine depletion achieved by cysteamine (c.f. cysteamine 100%) at a similar concentration.

St-HdhQ^111/111 cells = experiment: Glutamate-induced neuronal excitotoxicity assay; type: cell-based; conditions: STHdhQ111, 6 mM L-glutamate 24 hours, % of effect of 100 μM cysteamine; for viability at 10 µM: read-out: HdhQ^111/111 cell % survival (mean ± STD) Test Conc. 10 μM; for viability at 100 µM: read-out: HdhQ^111/111 cell % survival (mean ± STD) Test Conc. 100 μM
Description: The ability of test compounds to inhibit glutamate-induced excitotoxicity (neuroprotection) in St-HdhQ^111/111 cells was determined by incubating compounds with cells for 60 min at 33° C., 95% (v:v) air/5% (v:v) CO2 in Dulbecco's Modified Eagle Media. Following this, excitotoxicity was induced by the addition of 6 mM L-glutamate for 24 hours. Cell viability was assessed by measuring ATP levels using a luminescent-based CellTitre Glo assay (Promega). Compound neuroprotection (% cell survival) was expressed as a % of the effect recorded with 100 μM cysteamine (denoted as 100% cell survival).

[2] = Table 4, read-out: Cystine Depletion (%)
[3] = Table 5, read-out: Cystine Depletion (%) Mean Value

With N[C@H]1CC[C@@H](S)CC1 [Compound 42491] the “Cystine Reactivity Assay (30° C.) (%) Mean Value” (Cystine reactivity assay; Table 4) was <50% and the “ADO Metabolism Assay (%) Mean Value” (human recombinant ADO) was <25%.

With N[C@H]1CCCC[C@@H]1S [Compound 42693] the “Cystine Reactivity Assay (30° C.) (%) Mean Value” (Cystine reactivity assay; Table 4) was >90%, the Emax [1, 2] was 110% and the viability at 10 µM (St-HdhQ^111/111 cells) was 80 ± 10%. The viability at 100 µM (St-HdhQ^111/111 cells) was 77 ± 9%.

For CC(=O)SC1CCNCC1 [Compound 145692], the Emax [1, 3] was 75%.

C[N+]1(C)CCC(S)CC1 gave a viability at 10 µM (St-HdhQ^111/111 cells) of 1 ± 6% and a viability at 100 µM (St-HdhQ^111/111 cells) of 16 ± 7%.

With CNCCS [Compound 1a] the “metabolism by ADO compared to cysteamine (in words)” value (human recombinant ADO) was “significantly reduced metabolism by ADO compared to cysteamine”, the “cystine depletion levels (in words)” value [1] was “slightly decreased cystine depletion levels” and the Cystine depletion [1] was 85%. For the same compound, the “Cystine depletion ( ) = disulfide efficacy” value ([1]; disulfide of the compound, 50 μM or 100 μM) was “(94%)”.

For N[C@@H]1CCCC[C@@H]1S [Compound 42610], the “Cystine Reactivity Assay (30° C.) (%) Mean Value” (Cystine reactivity assay; Table 4) was >90%, the Emax [1, 2] was 91% and the viability at 10 µM (St-HdhQ^111/111 cells) was 19 ± 6%. The viability at 100 µM (St-HdhQ^111/111 cells) was 77 ± 8%.

In the case of C1CNC[C@H](SS[C@@H]2CCCNC2)C1 [Compound 145609], the “ADO Metabolism Assay (%) Mean Value” (human recombinant ADO) is reported as <25% and the Emax [1, 3] is reported as 121%.

With C[C@]1(S)CCCNC1 [Compound 151181] the “Cystine Reactivity Assay (30° C.) (%) Mean Value” (Cystine reactivity assay; Table 5) was 50-90%, the Emax [1, 3] was 69% and the viability at 10 µM (St-HdhQ^111/111 cells) was 3 ± 8%. It also gave a viability at 100 µM (St-HdhQ^111/111 cells) of 90 ± 9%.

In the case of CC(C)N1CCC(S)CC1 [Compound 42458], the “Cystine Reactivity Assay (30° C.) (%) Mean Value” (Cystine reactivity assay; Table 4) is reported as >90% and the Emax [1, 2] is reported as 91%.

Work on Oc1ccc2ccccc2c1SSc1c(O)ccc2ccccc12 [Compound 2415] yielded an Emax [1, 3] of 14%.

With CN1CC(SSC2CN(C)C2)C1 [Compound 42151] the Emax [1, 2] was 133%.

With CN1CC[C@@H](S)C1 the viability at 10 µM (St-HdhQ^111/111 cells) was 13 ± 13% and the viability at 100 µM (St-HdhQ^111/111 cells) was 93 ± 9%.

For SC1CNC1 [Compound 2a], the “metabolism by ADO compared to cysteamine (in words)” value (human recombinant ADO) was “significantly reduced metabolism by ADO compared to cysteamine”, the “cystine depletion levels (in words)” value [1] was “slightly decreased” and the Cystine depletion [1] was 82%.

In the case of Nc1nc2[nH]cnc2c(=S)[nH]1 [Compound 1141], the “Cystine Reactivity Assay (30° C.) (%) Mean Value” (Cystine reactivity assay; Table 5) is reported as <50% and the Emax [1, 3] is reported as 0%.

Work on CC1(C)CNCCC1S (stereo not shown) [Compound 42609] yielded an Emax [1, 2] of 17%.

In the case of CC1(S)CCNC1 (stereo not shown) [Compound 150731], the “Cystine Reactivity Assay (30° C.) (%) Mean Value” (Cystine reactivity assay; Table 5) is reported as >90% and the Emax [1, 3] is reported as 58%.

With CCN1CCC(S)CC1 [Compound 42391] the “Cystine Reactivity Assay (30° C.) (%) Mean Value” (Cystine reactivity assay; Table 4) was >90% and the Emax [1, 2] was 60%.

In the case of FC1(F)CN[C@@H](CS)C1 [Compound 149607], the “Cystine Reactivity Assay (30° C.) (%) Mean Value” (Cystine reactivity assay; Table 5) is reported as >90%, the Emax [1, 3] is reported as 17% and the viability at 10 µM (St-HdhQ^111/111 cells) is reported as 32 ± 9%. The viability at 100 µM (St-HdhQ^111/111 cells) was 98 ± 12%.

In the case of SCC1CCN1 (stereo not shown) [Compound 42212], the “Cystine Reactivity Assay (30° C.) (%) Mean Value” (Cystine reactivity assay; Table 4) is reported as <50%.

For N[C@H]1C[C@H](S)C1 [Compound 142460], the “Cystine Reactivity Assay (30° C.) (%) Mean Value” (Cystine reactivity assay; Table 5) was 50-90% and the Emax [1, 3] was 78%.

In the case of FC1(F)CN[C@H](CS)C1 [Compound 149611], the “Cystine Reactivity Assay (30° C.) (%) Mean Value” (Cystine reactivity assay; Table 5) is reported as >90%, the Emax [1, 3] is reported as 27% and the viability at 10 µM (St-HdhQ^111/111 cells) is reported as 35 ± 13%. It also gave a viability at 100 µM (St-HdhQ^111/111 cells) of 102 ± 13%.

In the case of CC1(S)CC(N)C1 (stereo not shown) [Compound 152071], the Emax [1, 3] is reported as 70%.

With C[C@@H](N)CS (single isomer, unassigned) [Compound 42099] the “Cystine Depletion (%)” value ([1]; Table 4) was 79%.

In the case of NC1CCC(S)C1 (stereo not shown) [Compound 42691], the “Cystine Reactivity Assay (30° C.) (%) Mean Value” (Cystine reactivity assay; Table 4) is reported as 50-90%.

CC1(SSC2(C)CCNCC2)CCNCC1 [Compound 151272] showed an Emax [1, 3] of 11%.

In the case of CN1CC[C@@H](SS[C@H]2CCN(C)C2)C1 [Compound 42342], the Emax [1, 2] is reported as 91%.

For F[C@@H]1CNCC[C@H]1S, the viability at 10 µM (St-HdhQ^111/111 cells) was 3 ± 7% and the viability at 100 µM (St-HdhQ^111/111 cells) was 86 ± 10%.

In the case of C[C@H](N)CS (single isomer, unassigned) [Compound 42-98], the “Cystine Depletion (%)” value ([1]; Table 4) is reported as 70%.
